Data reported in ChEMBL document CHEMBL4017454, “Bioactive terpenoids from Silybum marianum and their suppression on NO release in LPS-induced BV-2 cells and interaction with iNOS” (Bioorg Med Chem Lett, 2017).

What was measured:
BV-2 [1] = assay: Inhibition of LPS-induced NO production in mouse BV2 cells after 20 hrs by Griess assay; format: functional, cell-based; conditions: BV-2, 20 h
BV-2 [2] = assay: Cytotoxicity against mouse BV2 cells assessed as cell survival by MTT assay; format: cell-based

Structure (SMILES)	IC50 (BV-2 [1]) [µM]	Activity (BV-2 [2])
CC(C)(O)c1ccc(CO)c(O[C@@H]2O[C@H](CO)[C@@H](O)[C@H](O)[C@H]2O)c1	14.1	Non-Toxic
CC(C)(O)c1ccc(CO)c(O)c1	15.2	Non-Toxic

The remaining molecules from weak to strong by IC50 (BV-2 [1]), led by results:

IC50 (BV-2 [1]) [µM]	Structure (SMILES)	Activity (BV-2 [2])
17.8	Cc1ccc([C@@H](C)CO)cc1O	Non-Toxic
6.8	CC1=C2C[C@H]([C@@](C)(O)CO)CC[C@@]2(C)[C@H](O)CC1=O	Non-Toxic
2.5	CSC(=N)N.O=S(=O)(O)O	Non-Toxic
